Results reported in the supplement of paper PMC12076712.

Assays:
Experiment in all cases: pIC50, kinobeads binding competition
UniProt P45985 = target: T1, UniProt P45985
T1 sequence (whole entry): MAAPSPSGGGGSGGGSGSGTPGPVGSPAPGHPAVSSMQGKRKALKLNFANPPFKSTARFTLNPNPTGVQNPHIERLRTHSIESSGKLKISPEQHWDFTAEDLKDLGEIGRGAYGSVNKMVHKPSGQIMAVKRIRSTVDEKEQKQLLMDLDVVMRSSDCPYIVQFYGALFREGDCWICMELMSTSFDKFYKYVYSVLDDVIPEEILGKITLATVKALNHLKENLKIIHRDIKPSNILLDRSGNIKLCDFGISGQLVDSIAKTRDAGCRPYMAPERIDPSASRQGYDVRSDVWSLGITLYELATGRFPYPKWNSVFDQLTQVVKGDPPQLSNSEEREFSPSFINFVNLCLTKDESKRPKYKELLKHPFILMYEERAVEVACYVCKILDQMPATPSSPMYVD
Procedure, shortened: (§1)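 Either living Jurkat cells (60 min at 37 °C, then lysis) or lysates (60 min at 4 °C) were treated with nine compound concentrations from a top of 30 μM, in 1:4 steps for cells and 1:5 steps for lysates. The lysates were from Jurkat cells or a 1:1:1:1 mix of HEK293, K-562, HepG2 and placenta. Kinobeads-bound proteins were digested and quantified by TMT10 LC-MS/MS. pIC50 was calculated by logistic dose-response fitting (R drc package) of fold changes relative to vehicle, in biological duplicates.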

UniProt P09619 = conditions: cell material: Lysate mix
Procedure, shortened: as §1

ULK3 = target: T2, ULK3 (UniProt Q6PHR2)
T2 sequence (whole entry): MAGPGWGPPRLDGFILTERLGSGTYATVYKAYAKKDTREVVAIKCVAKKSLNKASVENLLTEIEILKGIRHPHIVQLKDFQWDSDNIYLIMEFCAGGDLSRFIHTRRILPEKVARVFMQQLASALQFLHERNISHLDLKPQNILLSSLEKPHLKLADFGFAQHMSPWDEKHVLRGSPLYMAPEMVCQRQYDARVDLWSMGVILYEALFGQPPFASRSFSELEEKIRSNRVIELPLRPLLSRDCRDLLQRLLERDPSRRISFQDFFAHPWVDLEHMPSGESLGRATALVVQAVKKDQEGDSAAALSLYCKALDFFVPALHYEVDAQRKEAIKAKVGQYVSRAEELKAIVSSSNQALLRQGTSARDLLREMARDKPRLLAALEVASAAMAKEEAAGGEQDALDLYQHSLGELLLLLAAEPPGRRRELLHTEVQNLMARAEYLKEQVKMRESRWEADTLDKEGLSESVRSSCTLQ
Procedure, shortened: as §1

TAOK2 = target: T3, TAOK2 (UniProt Q9UL54)
T3 sequence (whole entry): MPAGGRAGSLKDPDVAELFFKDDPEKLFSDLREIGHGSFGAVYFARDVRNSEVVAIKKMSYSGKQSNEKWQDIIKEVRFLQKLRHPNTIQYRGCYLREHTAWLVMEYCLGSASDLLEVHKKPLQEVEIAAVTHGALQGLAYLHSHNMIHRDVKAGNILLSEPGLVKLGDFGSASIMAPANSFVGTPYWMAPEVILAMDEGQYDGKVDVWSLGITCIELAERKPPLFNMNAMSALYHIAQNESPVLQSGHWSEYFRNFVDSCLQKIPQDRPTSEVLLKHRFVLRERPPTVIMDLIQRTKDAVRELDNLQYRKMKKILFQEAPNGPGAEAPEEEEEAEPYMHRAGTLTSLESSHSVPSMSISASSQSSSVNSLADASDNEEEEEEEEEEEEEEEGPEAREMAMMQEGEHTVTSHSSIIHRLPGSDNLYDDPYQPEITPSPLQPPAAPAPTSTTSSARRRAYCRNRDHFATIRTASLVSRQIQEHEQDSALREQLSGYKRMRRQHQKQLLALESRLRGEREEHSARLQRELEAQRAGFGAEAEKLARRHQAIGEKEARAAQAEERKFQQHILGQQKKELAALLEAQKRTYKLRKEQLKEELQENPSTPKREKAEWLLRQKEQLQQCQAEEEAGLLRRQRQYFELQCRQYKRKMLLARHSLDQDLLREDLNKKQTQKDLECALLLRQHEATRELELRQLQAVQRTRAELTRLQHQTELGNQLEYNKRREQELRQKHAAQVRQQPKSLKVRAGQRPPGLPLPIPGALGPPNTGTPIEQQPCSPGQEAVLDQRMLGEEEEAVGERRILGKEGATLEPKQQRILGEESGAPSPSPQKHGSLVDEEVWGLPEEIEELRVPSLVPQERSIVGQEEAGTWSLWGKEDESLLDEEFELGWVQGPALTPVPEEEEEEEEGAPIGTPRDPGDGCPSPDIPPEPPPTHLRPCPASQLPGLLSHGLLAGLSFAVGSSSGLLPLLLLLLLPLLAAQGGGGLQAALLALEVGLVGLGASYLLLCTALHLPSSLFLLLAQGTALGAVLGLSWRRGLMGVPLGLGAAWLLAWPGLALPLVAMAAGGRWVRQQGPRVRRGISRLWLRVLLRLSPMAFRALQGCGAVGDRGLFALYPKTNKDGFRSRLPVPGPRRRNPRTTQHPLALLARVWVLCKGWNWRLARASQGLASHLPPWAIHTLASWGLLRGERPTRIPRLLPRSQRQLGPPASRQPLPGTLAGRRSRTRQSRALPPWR
Procedure, shortened: as §1

DAPK3 = DAPK3 (UniProt O43293)
Procedure, shortened: as §1

PIM1 = PIM1 (UniProt P11309); conditions: cell material: Lysate mix
Procedure, shortened: as §1

Structure (SMILES)	pIC50 (UniProt P45985; cell material: Lysate mix)	pIC50 (UniProt P09619)	pIC50 (TAOK2; cell material: Jurkat cells)	pIC50 (TAOK2; cell material: Lysate mix)	pIC50 (DAPK3; cell material: Jurkat cells)	pIC50 (DAPK3; cell material: Lysate mix)	pIC50 (PIM1)	pIC50 (ULK3; cell material: Lysate mix)	pIC50 (UniProt P45985; cell material: Jurkat lysate)	pIC50 (ULK3; cell material: Jurkat cells)	pIC50 (ULK3; cell material: Jurkat lysate)	pIC50 (TAOK2; cell material: Jurkat lysate)	pIC50 (UniProt P45985; cell material: Jurkat cells)
CCNC(=O)c1cc(Nc2cc(C3CC3)[nH]n2)nc(N2CCN(Cc3ccc(S(=O)(=O)F)cc3)CC2)n1	4.88	< 4.52	–	< 4.52	–	4.83	< 4.52	6.27	–	–	–	–	–
CCNC(=O)c1cc(Nc2cc(C)[nH]n2)nc(N2CCN(Cc3ccc(S(=O)(=O)F)cc3)CC2)n1	< 4.52	< 4.52	–	< 4.52	–	5.14	< 4.52	5.63	–	–	–	–	–
C#CCNC(=O)c1cc(Nc2cc(C3CC3)[nH]n2)nc(N2CCN(Cc3ccc(S(=O)(=O)F)cc3)CC2)n1	4.82	< 4.52	–	< 4.52	–	< 4.52	< 4.52	6.39	< 4.52	6.44	5.88	< 4.52	5.86
C#CCNC(=O)c1cc(Nc2cc(C)[nH]n2)nc(N2CCN(Cc3ccc(S(=O)(=O)F)cc3)CC2)n1	< 4.52	< 4.52	–	< 4.52	–	4.77	< 4.52	5.49	–	–	–	–	–

Now from value to compound, other results behind:

pIC50 (UniProt P45985; cell material: Lysate mix)	pIC50 (UniProt P09619)	pIC50 (TAOK2; cell material: Jurkat cells)	pIC50 (TAOK2; cell material: Lysate mix)	pIC50 (DAPK3; cell material: Jurkat cells)	pIC50 (DAPK3; cell material: Lysate mix)	pIC50 (PIM1)	pIC50 (ULK3; cell material: Lysate mix)	Structure (SMILES)	pIC50 (UniProt P45985; cell material: Jurkat lysate)	pIC50 (ULK3; cell material: Jurkat cells)	pIC50 (ULK3; cell material: Jurkat lysate)	pIC50 (TAOK2; cell material: Jurkat lysate)	pIC50 (UniProt P45985; cell material: Jurkat cells)
< 4.52	< 4.52	5.96	5.33	< 4.52	< 4.52	< 4.52	–	O=C(NCCNC(=O)c1cc(Nc2cc(C3CC3)[nH]n2)nc(N2CCN(Cc3ccc(S(=O)(=O)F)cc3)CC2)n1)OC1CC/C=C/CCC1 (stereo unspecified)	< 4.52	5.86	< 4.52	5.08	–
< 4.52	< 4.52	–	5.15	–	< 4.52	< 4.52	< 4.52	Cc1cc(Nc2cc(C(=O)NCCNC(=O)OC3CC/C=C/CCC3)nc(N3CCN(Cc4ccc(S(=O)(=O)F)cc4)CC3)n2)n[nH]1 (stereo unspecified)	–	–	–	–	–
